Data as given in patent publication US9539252B2, “Piperazine-substituted benzothiophene derivatives as antipsychotic agents” (OTSUKA PHARMACEUTICAL CO., LTD., priority 2011, dated 2017).

experiment: Solubility in oil (sesame oil, benzyl benzoate), visual observation; settings: benzyl benzoate, oil or lipid, thermodynamic from solid

solubility, > 100 mg/mL:
O=C(OCN1C(=O)CCc2ccc(OCCCCN3CCN(c4cccc5sccc45)CC3)cc21)N1CCCCC1 [Example 9, piperidine-1-carboxylic acid 7-[4-(4-benzo[b]thiophen-4-ylpiperazin-1-yl)butoxy]-2-oxo-3,4-dihydro-2H-quinolin-1-ylmethyl ester]
O=C(OCn1c(=O)ccc2ccc(OCCCCN3CCN(c4cccc5sccc45)CC3)cc21)N1CCCCC1 [Example 10, piperidine-1-carboxylic acid 7-[4-(4-benzo[b]thiophen-4-ylpiperazin-1-yl)butoxy]-2-oxo-2H-quinolin-1-ylmethyl ester]
O=C(OCN1C(=O)CCc2ccc(OCCCCN3CCN(c4cccc5sccc45)CC3)cc21)c1ccccc1 [Example 11, benzoic acid 7-[4-(4-benzo[b]thiophen-4-ylpiperazin-1-yl)butoxy]-2-oxo-3,4-dihydro-2H-quinolin-1-ylmethyl ester]
O=C(OCn1c(=O)ccc2ccc(OCCCCN3CCN(c4cccc5sccc45)CC3)cc21)c1ccccc1 [Example 12, benzoic acid 7-[4-(4-benzo[o]thiophen-4-ylpiperazin-1-yl)butoxy]-2-oxo-2H-quinolin-1-ylmethyl ester]
O=C(OCN1C(=O)CCc2ccc(OCCCCN3CCN(c4cccc5sccc45)CC3)cc21)C1CCCC1 [Example 13, cyclopentanecarboxylic acid 7-[4-(4-benzo[b]thiophen-4-ylpiperazin-1-yl)butoxy]-2-oxo-3,4-dihydro-2H-quinolin-1-ylmethyl ester]
O=C(OCN1C(=O)CCc2ccc(OCCCCN3CCN(c4cccc5sccc45)CC3)cc21)C1CCCCC1 [Example 14, cyclohexanecarboxylic acid 7-[4-(4-benzo[b]thiophen-4-ylpiperazin-1-yl)butoxy]-2-oxo-3,4-dihydro-2H-quinolin-1-ylmethyl ester]
CC(C)(C)C(=O)OCN1C(=O)CCc2ccc(OCCCCN3CCN(c4cccc5sccc45)CC3)cc21 [Example 15, 2,2-dimethylpropionic acid 7-[4-(4-benzo[b]thiophen-4-ylpiperazin-1-yl)butoxy]-2-oxo-3,4-dihydro-2H-quinolin-1-ylmethyl ester]
CCCCN(C)C(=O)OCN1C(=O)CCc2ccc(OCCCCN3CCN(c4cccc5sccc45)CC3)cc21 [Example 16, N-butyl-N-methylcarbamic acid 7-[4-(4-benzo[b]thiophen-4-ylpiperazin-1-yl)butoxy]-2-oxo-3,4-dihydro-2H-quinolin-1-ylmethyl ester]
CCCCCCCCCCNC(=O)OCN1C(=O)CCc2ccc(OCCCCN3CCN(c4cccc5sccc45)CC3)cc21 [Example 17, N-decylcarbamic acid 7-[4-(4-benzo[b]thiophen-4-ylpiperazin-1-yl)butoxy]-2-oxo-3,4-dihydro-2H-quinolin-1-ylmethyl ester]
CC(C)(C)C(=O)OCn1c(=O)ccc2ccc(OCCCCN3CCN(c4cccc5sccc45)CC3)cc21 [Example 18, 2,2-dimethylpropionic acid 7-[4-(4-benzo[b]thiophen-4-ylpiperazin-1-yl)butoxy]-2-oxo-2H-quinolin-1-ylmethyl ester]
CCCC(=O)OCN1C(=O)CCc2ccc(OCCCCN3CCN(c4cccc5sccc45)CC3)cc21 [Example 19, butyric acid 7-[4-(4-benzo[b]thiophen-4-ylpiperazin-1-yl)butoxy]-2-oxo-3,4-dihydro-2H-quinolin-1-ylmethyl ester]
CCCC(=O)OCn1c(=O)ccc2ccc(OCCCCN3CCN(c4cccc5sccc45)CC3)cc21 [Example 20, butyric acid 7-[4-(4-benzo[b]thiophen-4-ylpiperazin-1-yl)butoxy]-2-oxo-2H-quinolin-1-ylmethyl ester]
CCCCCCCCCCCC(=O)OCN1C(=O)CCc2ccc(OCCCCN3CCN(c4cccc5sccc45)CC3)cc21 [Example 21, dodecanoic acid 7-[4-(4-benzo[b]thiophen-4-ylpiperazin-1-yl)butoxy]-2-oxo-3,4-dihydro-2H-quinolin-1-ylmethyl ester]
CCCCCCCCCCCC(=O)OCn1c(=O)ccc2ccc(OCCCCN3CCN(c4cccc5sccc45)CC3)cc21 [Example 22, dodecanoic acid 7-[4-(4-benzo[b]thiophen-4-ylpiperazin-1-yl)butoxy]-2-oxo-2H-quinolin-1-ylmethyl ester]
CCCCCCCCCCCCCCCC(=O)OCN1C(=O)CCc2ccc(OCCCCN3CCN(c4cccc5sccc45)CC3)cc21 [Example 23, hexadecanoic acid 7-[4-(4-benzo[b]thiophen-4-ylpiperazin-1-yl)butoxy]-2-oxo-3,4-dihydro-2H-quinolin-1-ylmethyl ester]
CCCCCCCC(=O)OCN1C(=O)CCc2ccc(OCCCCN3CCN(c4cccc5sccc45)CC3)cc21 [Example 24, octanoic acid 7-[4-(4-benzo[b]thiophen-4-ylpiperazin-1-yl)butoxy]-2-oxo-3,4-dihydro-2H-quinolin-1-ylmethyl ester]
CCCCNC(=O)OCN1C(=O)CCc2ccc(OCCCCN3CCN(c4cccc5sccc45)CC3)cc21 [Example 27, N-butylcarbamic acid 7-[4-(4-benzo[b]thiophen-4-ylpiperazin-1-yl)butoxy]-2-oxo-3,4-dihydro-2H-quinolin-1-ylmethyl ester]
CCCCN(CCCC)C(=O)OCN1C(=O)CCc2ccc(OCCCCN3CCN(c4cccc5sccc45)CC3)cc21 [Example 28, N,N-dibutylcarbamic acid 7-[4-(4-benzo[b]thiophen-4-ylpiperazin-1-yl)butoxy]-2-oxo-3,4-dihydro-2H-quinolin-1-ylmethyl ester]
O=C(NCC1CCCCC1)OCN1C(=O)CCc2ccc(OCCCCN3CCN(c4cccc5sccc45)CC3)cc21 [Example 29, N-cyclohexylmethylcarbamic acid 7-[4-(4-benzo[b]thiophen-4-ylpiperazin-1-yl)butoxy]-2-oxo-3,4-dihydro-2H-quinolin-1-ylmethyl ester]
CCCCCCCC(=O)OCn1c(=O)ccc2ccc(OCCCCN3CCN(c4cccc5sccc45)CC3)cc21 [Example 30, octanoic acid 7-[4-(4-benzo[b]thiophen-4-ylpiperazin-1-yl)butoxy]-2-oxo-2H-quinolin-1-ylmethyl ester]
CCCCCCCCCCCCCCCCCCCC(=O)OCN1C(=O)CCc2ccc(OCCCCN3CCN(c4cccc5sccc45)CC3)cc21 [Example 31, icosanoic acid 7-[4-(4-benzo[b]thiophen-4-ylpiperazin-1-yl)butoxy]-2-oxo-3,4-dihydro-2H-quinolin-1-ylmethyl ester]
O=C(OCn1c(=O)ccc2ccc(OCCCCN3CCN(c4cccc5sccc45)CC3)cc21)C1CCCCC1 [Example 32, cyclohexanecarboxylic acid 7-[4-(4-benzo[b]thiophen-4-ylpiperazin-1-yl)butoxy]-2-oxo-2H-quinolin-1-ylmethyl ester]

same assay, conditions: sesame oil, oil or lipid, thermodynamic from solid

solubility, > 100 mg/mL:
CCCCCCCCCCNC(=O)OCN1C(=O)CCc2ccc(OCCCCN3CCN(c4cccc5sccc45)CC3)cc21 [Example 17, N-decylcarbamic acid 7-[4-(4-benzo[b]thiophen-4-ylpiperazin-1-yl)butoxy]-2-oxo-3,4-dihydro-2H-quinolin-1-ylmethyl ester]
CCCCCCCCCCCC(=O)OCN1C(=O)CCc2ccc(OCCCCN3CCN(c4cccc5sccc45)CC3)cc21 [Example 21, dodecanoic acid 7-[4-(4-benzo[b]thiophen-4-ylpiperazin-1-yl)butoxy]-2-oxo-3,4-dihydro-2H-quinolin-1-ylmethyl ester]
CCCCN(CCCC)C(=O)OCN1C(=O)CCc2ccc(OCCCCN3CCN(c4cccc5sccc45)CC3)cc21 [Example 28, N,N-dibutylcarbamic acid 7-[4-(4-benzo[b]thiophen-4-ylpiperazin-1-yl)butoxy]-2-oxo-3,4-dihydro-2H-quinolin-1-ylmethyl ester]
